Assay results: patent publication US4336192A, “5,6-Dihydro-11-alkylene-morphanthridin-6-ones” (BASF Aktiengesellschaft, priority 1979, dated 1982)
“Also recorded” adds a separate entry of the source. Structures can show the parent of a compound that is named as a salt. Where two headings read alike, the source gives them in different places.

Legend:
female NMRI mice [1] = assay: Analgesic effect: D'amour and Smith tail-flick method; format: in vivo; conditions: for Analgesic effect (in words): result in words
Experimental: The analgesic effect is determined by means of the D'amour and Smith (1941) tail-flick method. In this, the substances are administered intraperitoneally to groups of 10 female NMRI mice. The pain reaction is triggered 30 minutes after administration. The reaction time, until the tail is flicked out of the way after exposure to a focused light beam, is measured.

female NMRI mice [2] = assay: Sedative effect: orientation hypermotility in a new environment, measured photoelectrically; format: in vivo; conditions: for ED50: Mus musculus, 0.5 h, read-out: Sedative effect ED 50%, oral, female NMRI mice, dose which reduces orientation hypermotility by 50% vs untreated controls, 30 min after administration; for Sedative effect (in words): result in words
Experimental: The substances are administered orally to groups of 4×3 or 8×3 female NMRI mice. The orientation hypermotility induced by a new environment is determined photoelectrically, 30 minutes after the administration of the substances, for a period of 30 minutes.

female NMRI mice [3] = assay: Anti-cholinergic effect: protection against death from Physostigmin; format: in vivo; conditions: for ED50: Mus musculus, read-out: Anti-cholinergic effect ED 50%, oral, 30 min before Physostigmin 0.825 mg/kg s.c., female NMRI mice, dose which protects 50% of animals against death; for Anti-cholinergic effect (in words): result in words, Physostigmin antagonism; for Anti-cholinergic effect R.A. (relative activity): Clozapin = 1.00
Experimental: 3. Anti-cholinergic effect
A lethal dose (0.825 mg/kg) of Physostigmin is administered subcutaneously to groups of 10 female NMRI mice. The test substances are administered orally 30 minutes before administering the Physostigmin.

[4] = test system: female Sprague-Dawley rats; assay: Apomorphine-antagonistic effect: apomorphine-triggered jaw motions (mandibulogram); format: in vivo; conditions: for ED50: Rattus norvegicus, sc, read-out: Apomorphine antagonism ED 50%, female Sprague-Dawley rats, 1.5 mg of apomorphine/kg s.c., dose which reduces number of jaw movements by 50%; for Apomorphine-antagonistic effect (in words): result in words
Experimental: 4. Apomorphine-antagonistic effect
Jaw motions are triggered in groups of 4-6 female Sprague-Dawley rats by subcutaneous administration of 1.5 mg of apomorphine/kg, and are recorded by means of implanted electrodes (KUBACKI mandibulogram, 1978).

Acute toxicity = conditions: mouse, in vivo, ip, read-out: Toxicity LD 50
Experimental: The substances are administered intraperitoneally to groups of 5-10 female NMRI mice.

[5] = intraperitoneal, female NMRI mice, dose which causes death of 50% of animals

Compound | Analgesic effect (in words) (female NMRI mice [1]) | ED50 (female NMRI mice [2]) [mg/kg] | Sedative effect (in words) (female NMRI mice [2]) | ED50 (female NMRI mice [3]) [mg/kg] | Anti-cholinergic effect (in words) (female NMRI mice [3]) | ED50 [4] [mg/kg] | Apomorphine-antagonistic effect (in words) [4] | LD50 (Acute toxicity) [mg/kg] | Anti-cholinergic effect R.A. (relative activity) (female NMRI mice [3]) | LD50 (Acute toxicity; [5]) [mg/kg] | Analgesic effect R.A. (relative activity) (female NMRI mice [1]; relative activity, Clozapin = 1.00) | Analgesic effect ED 100% (female NMRI mice [1]; intraperitoneal, female NMRI mice, dose which lengthens tail-flick reaction time by 100% vs control, 30 min after administration)
CN1CCN(C2=Nc3ccccc3C(=CC#N)c3ccccc32)CC1 (mixture of isomers) [Example 17 (cis-trans mixture), cis,trans-11-cyanomethylene-6-(4-methyl-piperazin-1-yl)-morphanthridine] | not analgesically active | 2.78 | relatively strong sedative effects; also recorded: more strongly sedative | 6.26 | manifests itself especially; also recorded: more strongly sedative and anti-cholinergic | 22 | somewhat weaker than that of Clozapin | 121 |  |  |  | 
Cc1ccc2c(c1)N=C(N1CCN(C)CC1)c1ccccc1C2=CC#N (mixture of isomers) [Example 30 (cis-trans mixture), cis,trans-3-Methyl-11-cyanomethylene-6-(4-methylpiperazin-1-yl)-morphanthridine] | An analgesic effect is found; also recorded: stronger analgesic effect | 0.804 | strong sedative effects; also recorded: high sedative activity (greater than that of Clozapin and Perlapin) | 31.2 | moderate anti-cholinergic effect | 35 |  |  | 0.45 | 178 |  | 
Cc1ccc2c(c1)C(=CC#N)c1ccccc1C(N1CCN(C)CC1)=N2 (mixture of isomers) [Example 31 (cis-trans mixture), cis,trans-2-Methyl-11-cyanomethylene-6-(4-methylpiperazin-1-yl)-morphanthridine] |  | 3.35 | relatively strong sedative effects | 2.74 | manifests itself especially | 42 |  |  |  | 50 |  | 
CCN1CCN(C2=Nc3ccccc3C(=CC#N)c3ccccc32)CC1 (mixture of isomers) [Example 36 (cis-trans mixture), cis,trans-11-Cyanomethylene-6-(4-ethyl-piperazin-1-yl)-morphanthridine] |  | 3.34 | relatively strong sedative effects | 7.8 | manifests itself especially | 43 |  | 100 |  |  |  | 
N#CC=C1c2ccccc2N=C(N2CCCNCC2)c2ccccc21 (mixture of isomers) [Example 37 (cis-trans mixture), cis,trans-11-Cyanomethylene-6-homopiperazin-1-yl-morphanthridine.HCl.H2 O] |  | > 21.5 |  | 5.49 | manifests itself especially | > 100 |  |  | 2.57 | 69.8 |  | 
N#CC=C1c2ccccc2N=C(NCCN2CCCCC2)c2ccccc21 (mixture of isomers) [Example 39 (cis-trans mixture), cis,trans-11-Cyanomethylene-6-(2-piperidin-1-ylethylamino)-morphanthridine.1/2H2 O] |  | 1.61 | strong sedative effects | > 10 |  | 46 |  |  | > 1.41 | 5.35 | > 0.21 | 
C[N+]1([O-])CCN(C2=Nc3ccccc3C(=CC#N)c3ccccc32)CC1 (mixture of isomers) [Example 44 (cis-trans mixture), cis,trans-11-Cyanomethylene-6-(4-methyl-4-oxy-piperazin-1-yl)-morphanthridine.2H2 O] |  | 14.3 |  | 1.98 | manifests itself especially | 85 |  |  | 7.12 | 464 |  | 
CN1CCN(C2=Nc3cc(Cl)ccc3Nc3ccccc32)CC1 [Clozapin, reference compound] |  | 4.74 |  | 14.1 |  | 8 |  |  | 1.00 | 215 |  | 
CN1CCN(C2=Nc3ccccc3/C(=C/C#N)c3ccccc32)CC1 [Example 17 (cis-isomer), cis 11-cyanomethylene-6-(4-methylpiperazin-1-yl)-morphanthridine] |  | 1.98 | strong sedative effects; also recorded: responsible for the sedative effect | 17.4 | relative to Clozapin, an approximately comparable anti-cholinergic effect | 46 | lower apomorphine-antagonistic effect | 147 |  |  |  | 
CN1CCN(C2=Nc3ccccc3/C(=C\C#N)c3ccccc32)CC1 [Example 17 (trans-isomer), trans-11-cyanomethylene-6-(4-methyl-piperazin-1-yl)-morphanthridine] |  | > 21.5 | very slight | 4.7 | manifests itself especially; also recorded: particularly exhibits an anti-cholinergic and apomorphine-antagonistic effect | 12 | particularly exhibits an anti-cholinergic and apomorphine-antagonistic effect |  |  | 332 |  | 
Cc1ccc2c(c1)N=C(N1CCN(C)CC1)c1ccccc1/C2=C\C#N [Example 30 (cis-isomer), cis-3-methyl-11-cyanomethylene-6-(4-methyl-piperazin-1-yl)-morphanthridine] | substantially more active than Clozapin; also recorded: strong sedative and strong analgesic effects | 1.06 | strong sedative and strong analgesic effects |  |  | 85 | weaker apomorphine-antagonistic effect than that of Clozapin and Perlapin | 287 |  |  |  | 
Cc1ccc2c(c1)N=C(N1CCN(C)CC1)c1ccccc1/C2=C/C#N [Example 30 (trans-isomer), trans-3-methyl-11-cyanomethylene-6-(4-methylpiperazin-1-yl)-morphanthridine] |  | 33.6 | little or no sedative effect | 12.3 | stronger anti-cholinergic and apomorphine-antagonistic effect | 19 | stronger anti-cholinergic and apomorphine-antagonistic effect |  |  | > 100 |  | 
CCN1CCN(C2=Nc3ccccc3/C(=C\C#N)c3ccccc32)CC1 [Example 36 (trans-isomer), trans-11-cyanomethylene-6-(4-ethyl-piperazin-1-yl)-morphanthridine] |  | > 100 | little or no sedative effect | 5.6 | manifests itself especially; also recorded: stronger anti-cholinergic and apomorphine-antagonistic effect | 22 | stronger anti-cholinergic and apomorphine-antagonistic effect |  |  | > 100 |  | 
C[N+]1([O-])CCN(C2=Nc3ccccc3/C(=C/C#N)c3ccccc32)CC1 [Example 44 (cis-isomer), cis-11-cyanomethylene-6-(4-methyl-4-oxy-piperazin-1-yl)-morphanthridine] |  | 17.6 |  | 100 |  | > 100 |  |  | 0.14 | 261 |  | 
C[N+]1([O-])CCN(C2=Nc3ccccc3/C(=C\C#N)c3ccccc32)CC1 [Example 44 (trans-isomer), trans-11-cyanomethylene-6-(4-methyl-4-oxy-piperazin-1-yl)-morphanthridine] |  | 100 | little or no sedative effect | 3.74 | manifests itself especially; also recorded: stronger anti-cholinergic and apomorphine-antagonistic effect | 25 | stronger anti-cholinergic and apomorphine-antagonistic effect |  | 3.77 | 559 |  | 
CN1CCN(C2=Nc3ccccc3Cc3ccccc32)CC1 [Perlapin, reference compound] |  | 2.05 |  | > 21.5 |  | 22 |  |  | < 0.66 | 215 |  | > 21.5
